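Compound exposure: 48 hours, 5 concentrations, 96-well plates. The concentration for full growth arrest is given as TGI.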
Experiments:
Experiment in all cases: NCI tumour cell line growth inhibition, 48 h
786-0 renal = test system: 786-0 renal
A498 renal = test system: A498 renal
A549 NSCLC = test system: A549 NSCLC
ACHN renal = test system: ACHN renal
CCRF-CEM leukemia = test system: CCRF-CEM leukemia
COLO 205 colon = test system: COLO 205 colon
DLD-1 colon = test system: DLD-1 colon
DMS 114 small cell lung = test system: DMS 114 small cell lung
DMS 273 small cell lung = test system: DMS 273 small cell lung
HCT-116 colon = test system: HCT-116 colon
HCT-15 colon = test system: HCT-15 colon
HL-60(TB) leukemia = test system: HL-60(TB) leukemia
HOP-18 NSCLC = test system: HOP-18 NSCLC
HOP-62 NSCLC = test system: HOP-62 NSCLC
HOP-92 NSCLC = test system: HOP-92 NSCLC
HT29 colon = test system: HT29 colon
IGROV1 ovarian = test system: IGROV1 ovarian
K-562 leukemia = test system: K-562 leukemia
KM20L2 colon = test system: KM20L2 colon
LOX IMVI melanoma = test system: LOX IMVI melanoma
LXFL 529 NSCLC = test system: LXFL 529 NSCLC
M14 melanoma = test system: M14 melanoma
M19-MEL melanoma = test system: M19-MEL melanoma
MOLT-4 leukemia = test system: MOLT-4 leukemia
NCI-H23 lung = test system: NCI-H23 lung
NCI-H460 lung = test system: NCI-H460 lung
NCI-H522 lung = test system: NCI-H522 lung
OVCAR-8 ovarian = test system: OVCAR-8 ovarian
RPMI-8226 leukemia = test system: RPMI-8226 leukemia
RXF 393 renal = test system: RXF 393 renal
SF-268 CNS = test system: SF-268 CNS
SF-539 CNS = test system: SF-539 CNS
SK-MEL-5 melanoma = test system: SK-MEL-5 melanoma
SK-OV-3 ovarian = test system: SK-OV-3 ovarian
SN12C renal = test system: SN12C renal
SW-620 colon = test system: SW-620 colon
TK-10 renal = test system: TK-10 renal
U251 CNS = test system: U251 CNS
UACC-62 melanoma = test system: UACC-62 melanoma
UO-31 renal = test system: UO-31 renal
XF 498 CNS = test system: XF 498 CNS
KM12 colon = test system: KM12 colon
MALME-3M melanoma = test system: MALME-3M melanoma
NCI-H226 lung = test system: NCI-H226 lung
OVCAR-3 ovarian = test system: OVCAR-3 ovarian
OVCAR-4 ovarian = test system: OVCAR-4 ovarian
SF-295 CNS = test system: SF-295 CNS
SK-MEL-2 melanoma = test system: SK-MEL-2 melanoma
SK-MEL-28 melanoma = test system: SK-MEL-28 melanoma
SNB-75 CNS = test system: SNB-75 CNS
SNB-78 CNS = test system: SNB-78 CNS
UACC-257 melanoma = test system: UACC-257 melanoma

With `Cn1nc(-c2ccccc2)c(C(=O)/C=C/c2ccccc2)c(N2CCOCC2)c1=O` the TGI (786-0 renal) was 32.4 µM, the TGI (A498 renal) was 35 µM and the TGI (A549 NSCLC) was over 100 µM. The TGI (ACHN renal) was 39.9 µM, the TGI (CCRF-CEM leukemia) was 57.2 µM and the TGI (COLO 205 colon) was 35.9 µM. It also gave a TGI (DLD-1 colon) of over 100 µM, a TGI (DMS 114 small cell lung) of 38.2 µM and a TGI (DMS 273 small cell lung) of 51.4 µM. The TGI (HCT-116 colon) was 32.8 µM, the TGI (HCT-15 colon) was 57 µM and the TGI (HL-60(TB) leukemia) was 32.3 µM. For the same compound, the TGI (HOP-18 NSCLC) was 89.7 µM, the TGI (HOP-62 NSCLC) was over 100 µM and the TGI (HOP-92 NSCLC) was 27.8 µM. For the same compound, the TGI (HT29 colon) was 33 µM, the TGI (IGROV1 ovarian) was 52.9 µM and the TGI (K-562 leukemia) was 56 µM. It also gave a TGI (KM20L2 colon) of 42.9 µM, a TGI (LOX IMVI melanoma) of 60.5 µM and a TGI (LXFL 529 NSCLC) of 34 µM. The TGI (M14 melanoma) was 52.6 µM, the TGI (M19-MEL melanoma) was 61.2 µM and the TGI (MOLT-4 leukemia) was 49.4 µM. The TGI (NCI-H23 lung) was 45.1 µM, the TGI (NCI-H460 lung) was 54.7 µM and the TGI (NCI-H522 lung) was 29.9 µM. For the same compound, the TGI (OVCAR-8 ovarian) was over 100 µM, the TGI (RPMI-8226 leukemia) was 59.1 µM and the TGI (RXF 393 renal) was 25.9 µM. The TGI (SF-268 CNS) was 32.6 µM, the TGI (SF-539 CNS) was 39.5 µM and the TGI (SK-MEL-5 melanoma) was 37.6 µM. The TGI (SK-OV-3 ovarian) was 81 µM, the TGI (SN12C renal) was 59.2 µM and the TGI (SW-620 colon) was over 100 µM. For the same compound, the TGI (TK-10 renal) was 89.4 µM, the TGI (U251 CNS) was 29.4 µM and the TGI (UACC-62 melanoma) was 52.9 µM. The TGI (UO-31 renal) was 28.1 µM and the TGI (XF 498 CNS) was 30.7 µM.

For `NCc1ccccc1C1CSCSC1`, the TGI (A549 NSCLC) was over 100 µM, the TGI (ACHN renal) was over 100 µM and the TGI (CCRF-CEM leukemia) was over 100 µM. It also gave a TGI (DLD-1 colon) of over 100 µM, a TGI (DMS 114 small cell lung) of over 100 µM and a TGI (DMS 273 small cell lung) of over 100 µM. The TGI (HCT-116 colon) was over 100 µM, the TGI (HCT-15 colon) was over 100 µM and the TGI (HL-60(TB) leukemia) was over 100 µM. The TGI (HT29 colon) was over 100 µM, the TGI (K-562 leukemia) was over 100 µM and the TGI (KM12 colon) was over 100 µM. It also gave a TGI (LOX IMVI melanoma) of over 100 µM, a TGI (LXFL 529 NSCLC) of over 100 µM and a TGI (M19-MEL melanoma) of over 100 µM. It also gave a TGI (MALME-3M melanoma) of over 100 µM, a TGI (MOLT-4 leukemia) of over 100 µM and a TGI (NCI-H226 lung) of over 100 µM. The TGI (NCI-H23 lung) was over 100 µM, the TGI (NCI-H460 lung) was over 100 µM and the TGI (NCI-H522 lung) was over 100 µM. It also gave a TGI (OVCAR-3 ovarian) of over 100 µM, a TGI (OVCAR-4 ovarian) of over 100 µM and a TGI (OVCAR-8 ovarian) of over 100 µM. The TGI (RXF 393 renal) was over 100 µM, the TGI (SF-268 CNS) was over 100 µM and the TGI (SF-295 CNS) was over 100 µM. The TGI (SF-539 CNS) was over 100 µM, the TGI (SK-MEL-2 melanoma) was over 100 µM and the TGI (SK-MEL-28 melanoma) was over 100 µM. For the same compound, the TGI (SK-MEL-5 melanoma) was over 100 µM, the TGI (SK-OV-3 ovarian) was over 100 µM and the TGI (SN12C renal) was over 100 µM. The TGI (SNB-75 CNS) was over 100 µM, the TGI (SNB-78 CNS) was over 100 µM and the TGI (SW-620 colon) was over 100 µM. For the same compound, the TGI (TK-10 renal) was over 100 µM, the TGI (U251 CNS) was over 100 µM and the TGI (UACC-257 melanoma) was over 100 µM. It also gave a TGI (UACC-62 melanoma) of over 100 µM, a TGI (UO-31 renal) of over 100 µM and a TGI (XF 498 CNS) of over 100 µM.

From PubChem BioAssay (NCI)
